Assay [1] relates to cattle. The assay is described as follows: Low Phosphorous diet experiment in cattle: blood plasma phosphorous concentration. In kind it is in vivo. Conditions: cattle on low Phosphorous roughage diet, 2,000 μg 25-hydroxy-vitamin D3 per head/day vs control diet; measured after 1, 11, 12, 13 and 14 days; effect at least after 10 days (FIG. 1). How it is done:
(§1) In an experimental cattle farm, two groups of animals were selected for the following experiment with a low Phosphorous diet.
(§2) One group received the control diet which was the standard roughage diet without the supplementation of 25-hydroxy-vitamin D3. The other group received the experimental diet which was the standard roughage diet supplemented with 2,000 μg 25-hydroxy-vitamin D3 per head/day
After 1, 11, 12, 13 and 14 days the blood plasma concentration of phosphorous was measured by standard method.

In assay [2] the test system is cattle. The assay is described as follows: Low Phosphorous diet experiment in cattle: phosphorous in diet, faeces and urine (P balance). In kind it is in vivo. The procedure: as §1, §2
Additionally the phosphorous concentration in g/day was measured or/calculated in the diet, faeces and urine.

[3] abbreviates: low Phosphorous roughage diet, 2,000 μg 25-hydroxy-vitamin D3 per head/day, NS vs control.
[4] abbreviates: low Phosphorous roughage diet, 2,000 μg 25-hydroxy-vitamin D3 per head/day, P < 0.05 vs control.

Each structure is given as a SMILES string.

With `C=C1CC[C@H](O)C/C1=C/C=C1\CCC[C@]2(C)[C@@H]([C@H](C)CCCC(C)(C)O)CC[C@@H]12` [25OH-D3, 25-hydroxy vitamin D3], the “phosphorous concentration in blood plasma” value with cattle [1] is “significant increase”. For the same compound, the “P excretion by the animal” value in the assay on cattle [2] (low Phosphorous diet, after 25-OH D3 supplementation vs control) is recorded as “significant decrease”. In addition, in the assay on cattle [2] (setting [3]), the “P (g/day) Feed” value turned out to be 26.36 g/day and the “P (g/day) Urine” value was 1.12 g/day. In the assay with cattle [2] (setting [4]), the “P (g/day) Faeces” value is on record as 17.21 g/day and the “P (g/day) Retained” value is reported as 8.03 g/day.

The record behind these values is patent US20140228329A1, “USE OF 25-HYDROXY VITAMIN D3 TO PROMOTE PHOSPHOROUS UTILISATION IN RUMINANTS” (DSM IP ASSETS B.V., priority 2011, published 2014).
